Here are results for two molecules from US5747235A, “Silver halide light sensitive emulsion layer having enhanced photographic sensitivity” (Eastman Kodak Company, priority 1996, dated 1998).

The nature of test [1]: Example 14: blue light sensitivity and fog after post-exposure bath, emulsion T-1. Conditions: bathed after exposure.
Procedure: Samples of the coating were exposed to a xenon flash of 10^-3 sec duration filtered through a 2.0 neutral density filter, Kodak Wratten filters 35 and 38A, and a step wedge ranging in density from 0 to 3 density units in 0.15 density steps. These conditions allowed only blue light to expose the coatings. After exposure, one sample of the coating was subjected to each of the following treatments:
B. Post-exposure bath for 15 min in a solution of 5.4×10^-4 M NaBr and 3.0'10^-6 M S-3 at pH=6.0. (Bath 1)
Post-exposure bath for 15 min in a solution of 5.4×10^-4 M NaBr and 1.5×10^-5 M S-3 at pH=6.0. (Bath 2)
The coatings subjected to the post-exposure baths were then rinsed to remove excess solution and all coatings were developed together for 6 min in Kodak Rapid X-ray Developer (KRX). Relative sensitivity to blue light, Sblue, was evaluated at a density of 0.15 units above fog.
A short description of test [2]: Example 13: photographic speed and fog, 365 nm exposure, cubic emulsion C-3. As to conditions: for Fog / S365: 0.02 x10^-3 mol/mol Ag. As for the experimental part:
For photographic evaluation, each of the coating strips was exposed for 0.1 sec to a 365 nm emission line of a Hg lamp filtered through a Kodak Wratten filter number 18A and a step wedge ranging in density from 0 to 4 density units in 0.2 density steps. The exposed film strips were developed for 6 min in Kodak Rapid X-ray Developer (KRX). S365, relative sensitivity at 365 nm, was evaluated at a density of 0.2 units above fog.
A chloride containing cubic emulsion with uniform halide distribution was precipitated using deionized gelatin. Emulsion C-3 was an AgClI emulsion with a 1.5% I content and a cubic edge length of 0.36 μm. The emulsion was chemically sensitized by adding 15 mg of Au2 S/mole Ag using a gelatin dispersion. The chemical sensitizer was added to the emulsion at 40° C., the temperature was then raised to 60° C. and the emulsion held for 20 min before cooling back to 40° C. These experimental coating variations contained the hydroxybenzene, 2,4-disulfocatechcol (HB3) at a concentration of 13 mmole/mole Ag, added to the melt before the addition of any further compounds. Some of the variations were then dyed with the sensitizing dye D-I, added from methanol solution. The fragmentable electron donor compound S-9 was then added to the emulsion melts at 40° C. and coatings were prepared and tested as described in Example 1 except that the additional gelatin used to prepare the coatings described in Table XIII was deionized gelatin.

Where a name gives a salt, the structure may show the parent alone.

`CCSCCN(c1ccc(C)cc1)[C@@H](C)C(=O)[O-].[Na+]` [Compound S-3, N-(4-Methylphenyl)-N-(2-ethylthio-ethyl)alanine sodium salt]: in test [1], the “sensitivity gain relative to unbathed coating” value is roughly 2 X.

In the case of `CCSCCN(c1ccccc1)C(C)C(=O)O` (stereo not drawn) [Compound S-9, N-(Phenyl)-N-(2-thioethyl-ethyl)alanine sodium salt], the Fog in test [2] (dye I 0.61 x10^-3) came to 0.14; in test [2] (no dye) it was 0.15. In addition, the S365 in test [2] (dye I 0.61 x10^-3, dyed control 74) came to 129; in test [2] (no dye, control=100), 118. The same molecule returned a speed increase in test [2] (undyed AgClI cubic emulsion) of 1.2 X.
